Results from US20120251619A1, “MicroRNA-29a,b,c as a Tumor Suppressor and Sensitizing Agent for Chemotherapy” (priority 2011, published 2012).
Entries after “also recorded” stand apart in the source; their conditions may differ.

Assays:
Assay type in all cases: cell-based, human
[1] = tested on: HEYA8 cells (p53-wild type ovarian cancer); assay: MTS proliferation assay after transient transfection of miR-29a mimic; conditions: HEYA8, miR-29a mimic transiently transfected, vs parental strain and scrambled control, 48 h and 72 h
Experimental: (§1) For the in vitro evaluation of miR-29a on cell proliferation of ovarian cancer cells, microRNA mimics of miR-29a were transiently transfected into the p53-deficient ovarian cancer cell line OVCAR8 and the p53-wild type HEYA8 and the impact of this microRNA on cell proliferation was measured by increase in absorbance from the […].
(§2) The time course MTS assay experiments were run three times (separate days), each with a different set of biological quadruplicates (n=12 per group); within each experiment run, the viability measures within each time point were centered on the mean of the WT group for the first run. For cisplatin treatment, cells were transfected as described, and media was replaced after 24 hrs with media containing cisplatin (Sigma) (0-7.5 μg/mL). Viability was assayed 72 hrs post-transfection. Experiments were run three times, each with a different biological replicate (n=3 per group). For each run, viability measures within each concentration point were centered on the mean of values for the first run.

[2] = tested on: OVCAR-8 cells (p53-deficient ovarian cancer); assay: as above; conditions: OVCAR8, miR-29a mimic transiently transfected, vs parental strain and scrambled control, 48 h and 72 h
Experimental: as §1, §2

HEYA8 cells = assay: Proliferation/viability under cisplatin treatment after miR-29a transfection; conditions: HEYA8, miR-29a 72 h, cisplatin 0-7.5 μg/mL for 48 h, vs scrambled control at same cisplatin dosage
Experimental: (§3) FIGS. 6A-6B: Effect of miR-29a (72 h) on proliferation, under a range of concentrations of cisplatin treatment (at 48 h) of HEYA8 (FIG. 6A) and OVCAR-8 cells (FIG. 6B). Error bars are standard error. Proliferation curves of the parental HEYA8 strain treated with a scrambled control sequence and with microRNA mimics for miR-29a are shown.
as §2

OVCAR-8 cells = assay: as above; conditions: OVCAR-8, miR-29a 72 h, cisplatin 0-7.5 μg/mL for 48 h
Experimental: as §3, §2

CBX1 = assay: QPCR of gene target after miR-29a overexpression in HEYA8 cells; conditions: HEYA8, forced miR-29a expression vs scrambled control and untreated
Experimental: (§4) FIG. 4: QPCR analysis showing relative quantity of selected miR-29a anti-correlated gene targets after miR29a overexpression in HEYA8 ovarian cancer cells (SCR, scrambled control; WT, untreated; two-sided t-test P<0.05, mir-29a vs SCR and miR-29a vs WT, each comparison, except for SAE1).
(§5) Total RNA (60 ng) was reverse transcribed in a 40 μl reaction using the TaqMan® MicroRNA Reverse Transcription Kit (ABI). QPCR was performed on a StepOne Real-Time PCR System (ABI) using Power-SYBR Green PCR Master Mix (ABI) in a 20 μl reaction and human ribosomal RNA 18s as an endogenous control (which was itself not miR-29a-regulated, data not shown). The QPCR experiments were run four times (separate days), each with independent biological samples (n=4 per group); within each experiment run, relative expression values were normalized to standard deviations from the mean.

CDC6 = assay: as above; conditions: HEYA8, forced miR-29a expression vs scrambled control and untreated
Experimental: as §4, §5

DNMT3A = assay: as above; conditions: HEYA8, forced miR-29a expression vs scrambled control and untreated
Experimental: as §4, §5

DNMT3B = assay: as above; conditions: HEYA8, forced miR-29a expression vs scrambled control and untreated
Experimental: as §4, §5

MYBL2 = assay: as above; conditions: HEYA8, forced miR-29a expression vs scrambled control and untreated
Experimental: as §4, §5

SAE1 = assay: as above; conditions: HEYA8, forced miR-29a expression vs scrambled control and untreated
Experimental: as §4, §5

TIMELESS = assay: as above; conditions: HEYA8, forced miR-29a expression vs scrambled control and untreated
Experimental: as §4, §5

**Q.** “miR-29a: microRNA mimic of miR-29a (5′-TAGCACCATCTGAAATCGGTTA-3′, SEQ ID NO: 13), transiently transfected into ovarian cancer cells (listed as DNA, chemistry not given here)” was tested. Which “effect on cell proliferation” value [1] did it give?
**A.** Its value is “very significantly suppress cell proliferation”.

**Q.** And the “effect on cell proliferation” value [2]?
**A.** Its value is “moderately suppress cell proliferation”.

**Q.** What about the “effect on proliferation under cisplatin treatment” value (HEYA8 cells) of the same substance?
**A.** Its value is “suppress the proliferation of HEYA8 significantly more effectively than the scrambled control; also recorded: suppresses the proliferation of HEYA8 significantly more effectively than the scrambled control”.

**Q.** And the “effect on proliferation under cisplatin treatment” value (OVCAR-8 cells)?
**A.** Its value is “had an additional effect on chemotherapeutic agent cisplatin in inhibiting the growth”.

**Q.** And the “relative quantity of CBX1 transcript (QPCR)” value (CBX1)?
**A.** The value was “repressed”.

**Q.** What about the “relative quantity of CDC6 transcript (QPCR)” value (CDC6) of the same substance?
**A.** The value was “repressed”.

**Q.** What about the “relative quantity of DNMT3A transcript (QPCR)” value (DNMT3A) of the same substance?
**A.** The value was “repressed”.

**Q.** What about the “relative quantity of DNMT3B transcript (QPCR)” value (DNMT3B) of the same substance?
**A.** Its value is “repressed”.

**Q.** And the “relative quantity of MYBL2 transcript (QPCR)” value (MYBL2)?
**A.** Its value is “repressed”.

**Q.** What about the “relative quantity of SAE1 transcript (QPCR)” value (SAE1) of the same substance?
**A.** The value was “no functional repression”.

**Q.** And the “relative quantity of TIMELESS transcript (QPCR)” value (TIMELESS)?
**A.** The value was “repressed”.
